Data as given in patent US20160122312A1, “ANTI-VIRAL COMPOUNDS, PHARMACEUTICAL COMPOSITIONS AND METHODS OF USE THEREOF” (KINETA, INC., priority 2013, published 2016).

How the values were obtained:
[1] = tested on: influenza virus A/Udorn/72 H3N2 strain; assay: influenza focus-forming assay in 293 cells; assay type: cell-based; conditions: for viral infection of 293 cells (decrease in foci, dose dependence): FIGS. 3A, 3B; for IC50: HEK293, 24 h, read-out: Flu IC50; for antiviral activity compared with KIN101 (viral titer): FIG. 3A
RSV A2 Long strain = assay: RSV antiviral assay in HeLa cells; assay type: cell-based, respiratory syncytial virus; conditions: 48 hours post infection, FIG. 2B
Murine EMCV = assay: EMCV in vitro antiviral assay, Huh7 cell viability by MTS; assay type: cell-based, encephalomyocarditis virus; conditions: Huh7 cells; for Cell viability post-infection: 5 hours before EMCV, MTS 18 hours after infection
Procedure: In an encephalomyocarditis virus (EMCV) in vitro antiviral assay, Huh7 cells were grown under normal growth conditions and treated with the indicated amount of KIN101 in media containing 0.5% DMSO. The cells were grown in the presence of compound for 5 hours and then infected with 250 pfu Murine EMCV obtained from ATCC #VR-129B. Infected cells were grown for an additional 18 hours and then cell viability was measured using an MTS assay. Negative control cells were treated with buffer alone containing 0.5% DMSO. Interferon treatment was used as a positive control for virus inhibition and was added similar to compound treatments at a final concentration of 10 IU/mL Interferon-α: Intron A, from Schering-Plough. Cell viability was measured using an MTS assay, CellTiter 96® AQueous One Solution Cell Proliferation Assay (MTS), from Promega #G3580. […]

DNV type 2 strain = assay: DNV focus-forming assay in Huh7 cells; assay type: cell-based, Dengue virus; conditions: for IC50: Dengue virus, Huh-7, Huh7 cells, treatment after infection, 48 hours replication; for viral infection of Huh7 cells (decrease in foci, dose dependence): FIG. 4B
hCMV AD169 strain = assay: hCMV focus-forming assay in human foreskin fibroblasts; assay type: cell-based, human cytomegalovirus; conditions: FIGS. 5A, 5B
[2] = tested on: interferon-stimulated gene (ISG) induction; assay: preliminary screen of natural product library for ISG induction; assay type: cell-based; conditions: preliminary screen of NCI natural product library
Description: The compounds disclosed herein are described as isoflavone compounds. Isoflavones are best known as natural products isolated from the Leguminosae (legume) family and are usually polyhydroxylated and pharmacologically active as phytoestrogenics and antioxidants. The most recognizable member of this class is genistein, which has been reported to have anticancer activities and to induce thymic and immune changes in mammals (Banerjee, S., et al. (2008) Multi-targeted therapy of cancer by genistein, Cancer Lett 269, 226-242).

SMILES: CS(=O)(=O)Oc1ccc2c(=O)c(-c3ccc(Br)cc3)coc2c1 [KIN101]
- viral infection of 293 cells (decrease in foci, dose dependence) [1]: dose-dependent decreases in viral infection
- IC50 [1]: 2000 nM
- RSV viral RNA (RSV A2 Long strain): decreased RSV viral RNA
- Cell viability post-infection (Murine EMCV; 5 units added): ~0.7
- Cell viability post-infection (Murine EMCV; 10 units added): ~1.2
- Cell viability post-infection (Murine EMCV; 20 units added): ~1.45
- cell viability following infection with EMCV (in words) (Murine EMCV): protective of cell viability
- IC50 (DNV type 2 strain): > 5000 nM
- viral infection of Huh7 cells (decrease in foci, dose dependence) (DNV type 2 strain): dose-dependent decreases in viral infection
- viral protein in cells infected with DNV (DNV type 2 strain; increasing amounts of compound, FIG. 4A): dose-dependent decrease in viral protein

SMILES: CS(=O)(=O)Oc1ccc2c(=O)c(-c3ccc(OC(F)(F)F)cc3)coc2c1 [KIN134]
- hCMV as measured by foci (FFU/mL), dose dependence (hCMV AD169 strain): dose-dependent decreases in hCMV
- antiviral activity compared with KIN101 (viral titer) [1]: improved on this antiviral activity
- IC50 [1]: 450 nM
- IC50 (DNV type 2 strain): 3970 nM
- viral infection of Huh7 cells (decrease in foci, dose dependence) (DNV type 2 strain): dose-dependent decreases in viral infection

SMILES: O=C(COc1ccc2c(=O)c(-c3ccc(Br)cc3)coc2c1)N1CCOCC1 [KIN238]
- IC50 [1]: 1200 nM
- IC50 (DNV type 2 strain): 1180 nM

SMILES: CS(=O)(=O)Oc1ccc2c(=O)c(-c3ccc(C(F)(F)F)cc3)coc2c1 [KIN263]
- antiviral activity compared with KIN101 (viral titer) [1]: improved on this antiviral activity
- IC50 [1]: 800 nM
- IC50 (DNV type 2 strain): 1390 nM

SMILES: CS(=O)(=O)Oc1ccc2c(=O)c(-c3cccc4ccccc34)coc2c1 [KIN267]
- antiviral activity compared with KIN101 (viral titer) [1]: improved on this antiviral activity

SMILES: CC(C)(C)c1ccc(-c2coc3cc(OS(C)(=O)=O)ccc3c2=O)cc1 [KIN269]
- IC50 [1]: 145 nM
- IC50 (DNV type 2 strain): 542 nM

SMILES: CS(=O)(=O)Oc1ccc2c(=O)c(C3CCCC3)coc2c1 [KIN282]
- antiviral activity compared with KIN101 (viral titer) [1]: improved on this antiviral activity

SMILES: O=C(COc1ccc2c(=O)c(-c3ccc(OC(F)(F)F)cc3)coc2c1)N1CCOCC1 [KIN290]
- IC50 [1]: 1530 nM
- IC50 (DNV type 2 strain): 3100 nM

SMILES: CN(c1ccc(-c2coc3cc(OS(C)(=O)=O)ccc3c2=O)cc1)S(C)(=O)=O [KIN291]
- antiviral activity compared with KIN101 (viral titer) [1]: improved on this antiviral activity

SMILES: O=c1c(-c2ccc(OC(F)(F)F)cc2)coc2cc(OC(F)F)ccc12 [KIN299]
- viral infection of 293 cells (decrease in foci, dose dependence) [1]: dose-dependent decreases in viral infection
- IC50 [1]: 709 nM
- IC50 (DNV type 2 strain): > 5000 nM

SMILES: CC(C)(C)c1ccc(-c2coc3cc(OCC(=O)N4CCOCC4)ccc3c2=O)cc1 [KIN306]
- antiviral activity compared with KIN101 (viral titer) [1]: improved on this antiviral activity
- IC50 [1]: 880 nM
- IC50 (DNV type 2 strain): 2810 nM

SMILES: CS(=O)(=O)Oc1ccc2c(=O)c(-c3ccc(NS(=O)(=O)N4CCCCC4)cc3)coc2c1 [KIN308]
- antiviral activity compared with KIN101 (viral titer) [1]: improved on this antiviral activity
- IC50 [1]: 108 nM
- IC50 (DNV type 2 strain): 4160 nM

SMILES: C#CCOc1ccc2c(=O)c(-c3ccc(C(C)(C)C)cc3)coc2c1 [KIN328]
- hCMV as measured by foci (FFU/mL), dose dependence (hCMV AD169 strain): dose-dependent decreases in hCMV
- viral infection of 293 cells (decrease in foci, dose dependence) [1]: dose-dependent decreases in viral infection
- IC50 [1]: 286 nM
- IC50 (DNV type 2 strain): 1340 nM
- viral infection of Huh7 cells (decrease in foci, dose dependence) (DNV type 2 strain): dose-dependent decreases in viral infection

SMILES: CS(=O)(=O)Oc1ccc2c(=O)c(-c3ccc(OCC4CC4)cc3)coc2c1 [KIN371]
- viral infection of 293 cells (decrease in foci, dose dependence) [1]: dose-dependent decreases in viral infection
- IC50 [1]: 156 nM
- IC50 (DNV type 2 strain): > 5000 nM

SMILES: CC(C)(C)COc1ccc(-c2coc3cc(OS(C)(=O)=O)ccc3c2=O)cc1 [KIN372]
- hCMV as measured by foci (FFU/mL), dose dependence (hCMV AD169 strain): dose-dependent decreases in hCMV
- viral infection of 293 cells (decrease in foci, dose dependence) [1]: dose-dependent decreases in viral infection
- IC50 [1]: 37 nM
- IC50 (DNV type 2 strain): 1690 nM
- viral infection of Huh7 cells (decrease in foci, dose dependence) (DNV type 2 strain): dose-dependent decreases in viral infection

SMILES: CS(=O)(=O)Oc1ccc2c(=O)c(-c3ccc(OCC(F)(F)F)cc3)coc2c1 [KIN376]
- hCMV as measured by foci (FFU/mL), dose dependence (hCMV AD169 strain): dose-dependent decreases in hCMV
- viral infection of 293 cells (decrease in foci, dose dependence) [1]: dose-dependent decreases in viral infection
- IC50 [1]: 103 nM
- IC50 (DNV type 2 strain): 5000 nM
- viral infection of Huh7 cells (decrease in foci, dose dependence) (DNV type 2 strain): dose-dependent decreases in viral infection

SMILES: CS(=O)(=O)Oc1ccc2c(=O)c(-c3ccc(OC(F)F)cc3)coc2c1 [KIN378]
- IC50 [1]: 600 nM
- IC50 (DNV type 2 strain): > 5000 nM

SMILES: CN(c1ccc2c(=O)c(-c3ccc(C(C)(C)C)cc3)coc2c1)S(C)(=O)=O [KIN385]
- hCMV as measured by foci (FFU/mL), dose dependence (hCMV AD169 strain): dose-dependent decreases in hCMV
- viral infection of 293 cells (decrease in foci, dose dependence) [1]: dose-dependent decreases in viral infection
- IC50 [1]: 9 nM
- IC50 (DNV type 2 strain): 293 nM
- viral infection of Huh7 cells (decrease in foci, dose dependence) (DNV type 2 strain): dose-dependent decreases in viral infection

SMILES: CS(=O)(=O)Oc1ccc2c(=O)c(-c3ccc(OCC4CCOCC4)cc3)coc2c1 [KIN389]
- IC50 [1]: 200 nM
- IC50 (DNV type 2 strain): > 5000 nM

SMILES: CC(C)(C)c1ccc(-c2coc3cc(OCCN4CCOCC4)ccc3c2=O)cc1 [KIN392]
- hCMV as measured by foci (FFU/mL), dose dependence (hCMV AD169 strain): dose-dependent decreases in hCMV
- viral infection of 293 cells (decrease in foci, dose dependence) [1]: dose-dependent decreases in viral infection
- IC50 [1]: 9 nM
- IC50 (DNV type 2 strain): 650 nM

SMILES: CC(=O)N1CCN(CCOc2ccc3c(=O)c(-c4ccc(C(C)(C)C)cc4)coc3c2)CC1 [KIN394]
- hCMV as measured by foci (FFU/mL), dose dependence (hCMV AD169 strain): dose-dependent decreases in hCMV
- viral infection of 293 cells (decrease in foci, dose dependence) [1]: dose-dependent decreases in viral infection
- IC50 [1]: 70 nM
- IC50 (DNV type 2 strain): 940 nM

SMILES: CC(C)(C)c1ccc(-c2coc3cc(OCCN4CCN(S(C)(=O)=O)CC4)ccc3c2=O)cc1 [KIN395]
- hCMV as measured by foci (FFU/mL), dose dependence (hCMV AD169 strain): dose-dependent decreases in hCMV
- viral infection of 293 cells (decrease in foci, dose dependence) [1]: dose-dependent decreases in viral infection
- IC50 [1]: 57 nM
- IC50 (DNV type 2 strain): 1970 nM

SMILES: CN1CCN(CCOc2ccc3c(=O)c(-c4ccc(C(C)(C)C)cc4)coc3c2)CC1 [KIN807]
- IC50 [1]: 143 nM
- IC50 (DNV type 2 strain): 130 nM

SMILES: CC(=O)N1CCN(CCOc2ccc3c(=O)c(-c4ccc(OC(F)(F)F)cc4)coc3c2)CC1 [KIN814]
- IC50 [1]: 62 nM
- IC50 (DNV type 2 strain): 187 nM

SMILES: CN1CCN(CCOc2ccc3c(=O)c(-c4ccc(OC(F)(F)F)cc4)coc3c2)CC1 [KIN823]
- IC50 [1]: 153 nM
- IC50 (DNV type 2 strain): 371 nM

SMILES: O=c1c(-c2ccc(OC(F)(F)F)cc2)coc2cc(OCCN3CCOCC3)ccc12 [KIN824]
- IC50 [1]: 76 nM
- IC50 (DNV type 2 strain): 217 nM

SMILES: CS(=O)(=O)N1CCN(CCOc2ccc3c(=O)c(-c4ccc(OC(F)(F)F)cc4)coc3c2)CC1 [KIN826]
- IC50 [1]: 14 nM
- IC50 (DNV type 2 strain): 196 nM

SMILES: CC(=O)N1CCN(CCOc2ccc3c(=O)c(-c4ccc(Br)cc4)coc3c2)CC1 [KIN844]
- IC50 [1]: 2 nM
- IC50 (DNV type 2 strain): 316 nM

SMILES: CS(=O)(=O)N1CCN(CCOc2ccc3c(=O)c(-c4ccc(Br)cc4)coc3c2)CC1 [KIN848]
- IC50 [1]: 4 nM
- IC50 (DNV type 2 strain): 258 nM

SMILES: CS(=O)(=O)Oc1ccc2c(=O)c(-c3ccc(OCC4CCCOC4)cc3)coc2c1 (stereo not shown) [KIN850]
- IC50 [1]: 2 nM
- IC50 (DNV type 2 strain): 1350 nM

SMILES: CC(C)(C)c1ccc(-c2coc3cc(OCCO)ccc3c2=O)cc1 [KIN851]
- IC50 [1]: 417 nM
- IC50 (DNV type 2 strain): 1190 nM

SMILES: CN(c1ccc2c(=O)c(-c3ccc(OCC(F)(F)F)cc3)coc2c1)S(C)(=O)=O [KIN857]
- IC50 [1]: 65 nM
- IC50 (DNV type 2 strain): 182 nM

SMILES: CNCCOc1ccc2c(=O)c(-c3ccc(C(C)(C)C)cc3)coc2c1 [KIN861]
- IC50 [1]: 405 nM
- IC50 (DNV type 2 strain): > 5000 nM

SMILES: CN(c1ccc2c(=O)c(-c3ccc(OCC4CC4)cc3)coc2c1)S(C)(=O)=O [KIN865]
- IC50 [1]: 234 nM
- IC50 (DNV type 2 strain): 176 nM

SMILES: CCN(c1ccc2c(=O)c(-c3ccc(C(C)(C)C)cc3)coc2c1)S(C)(=O)=O [KIN866]
- IC50 [1]: 27 nM
- IC50 (DNV type 2 strain): 507 nM

SMILES: CN(c1ccc2c(=O)c(-c3ccc(OCC(C)(C)C)cc3)coc2c1)S(C)(=O)=O [KIN867]
- IC50 [1]: 7 nM
- IC50 (DNV type 2 strain): 304 nM

SMILES: CN(c1ccc2c(=O)c(-c3ccc(OCCC(C)(C)C)cc3)coc2c1)S(C)(=O)=O [KIN882]
- IC50 [1]: 30 nM
- IC50 (DNV type 2 strain): 216 nM

SMILES: O=c1c(-c2ccc(O)cc2)coc2cc(O)cc(O)c12 [genistein]
- interferon-stimulated gene (ISG) induction, screen outcome [2]: validated hit
